Measurements published in ChEMBL document CHEMBL1201862, “PubChem BioAssay data set” (2004).
Calls of active or inactive are those of the source.

Experiments:
[1] = system: Streptococcus sp. 'group A'; test: Streptococcus pyogenes SK(-)GAS viability under kanamycin – luminescence, BacTiterGlo, confirmation, counter-screen for streptokinase expression inhibitor project, dose response (AID 1900); assay type: functional, organism-based
[2] = system: Streptococcus; test: GAS UMAA2166 growth inhibition – luminescence, BacTiterGlo, counter-screen for streptokinase expression inhibitor project, dose response (AID 1915); assay type: functional, organism-based;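 also: potency for reduction of bacterial viability or growth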
[3] = biological target: T1, Streptokinase A (Streptococcus pyogenes serotype M1, UniProt P10520); test: viability-normalized secreted streptokinase activity reduction – plasminogen activation absorbance, OD405, dose response (AID 1914); assay type: functional, Streptococcus pyogenes M1 GAS;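 also: secreted streptokinase activity via plasminogen activation per viability signal from cell pellet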
T1 sequence (P10520 whole entry): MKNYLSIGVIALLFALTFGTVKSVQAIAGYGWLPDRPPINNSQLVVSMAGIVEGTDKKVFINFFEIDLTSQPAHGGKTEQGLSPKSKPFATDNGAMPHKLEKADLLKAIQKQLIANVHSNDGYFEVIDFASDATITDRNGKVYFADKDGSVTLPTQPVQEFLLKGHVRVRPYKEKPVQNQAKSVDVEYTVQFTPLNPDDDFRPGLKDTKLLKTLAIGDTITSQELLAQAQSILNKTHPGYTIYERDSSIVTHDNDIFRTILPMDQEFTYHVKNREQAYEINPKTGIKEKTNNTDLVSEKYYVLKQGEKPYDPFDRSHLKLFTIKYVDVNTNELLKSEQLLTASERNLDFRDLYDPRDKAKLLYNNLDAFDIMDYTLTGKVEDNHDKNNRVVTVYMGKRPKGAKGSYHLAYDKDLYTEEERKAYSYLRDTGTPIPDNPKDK

[4] = biological target: T2, Aminopeptidase N (Plasmodium falciparum FcB1/Columbia, UniProt O96935); test: malaria alanyl aminopeptidase activity blockers – biochemical, fluorogenic H-Leu-NHMec substrate, 1536-well (AID 1445); design: species or system Plasmodium falciparum 3D7, 3D7
T2 sequence (O96935 whole entry): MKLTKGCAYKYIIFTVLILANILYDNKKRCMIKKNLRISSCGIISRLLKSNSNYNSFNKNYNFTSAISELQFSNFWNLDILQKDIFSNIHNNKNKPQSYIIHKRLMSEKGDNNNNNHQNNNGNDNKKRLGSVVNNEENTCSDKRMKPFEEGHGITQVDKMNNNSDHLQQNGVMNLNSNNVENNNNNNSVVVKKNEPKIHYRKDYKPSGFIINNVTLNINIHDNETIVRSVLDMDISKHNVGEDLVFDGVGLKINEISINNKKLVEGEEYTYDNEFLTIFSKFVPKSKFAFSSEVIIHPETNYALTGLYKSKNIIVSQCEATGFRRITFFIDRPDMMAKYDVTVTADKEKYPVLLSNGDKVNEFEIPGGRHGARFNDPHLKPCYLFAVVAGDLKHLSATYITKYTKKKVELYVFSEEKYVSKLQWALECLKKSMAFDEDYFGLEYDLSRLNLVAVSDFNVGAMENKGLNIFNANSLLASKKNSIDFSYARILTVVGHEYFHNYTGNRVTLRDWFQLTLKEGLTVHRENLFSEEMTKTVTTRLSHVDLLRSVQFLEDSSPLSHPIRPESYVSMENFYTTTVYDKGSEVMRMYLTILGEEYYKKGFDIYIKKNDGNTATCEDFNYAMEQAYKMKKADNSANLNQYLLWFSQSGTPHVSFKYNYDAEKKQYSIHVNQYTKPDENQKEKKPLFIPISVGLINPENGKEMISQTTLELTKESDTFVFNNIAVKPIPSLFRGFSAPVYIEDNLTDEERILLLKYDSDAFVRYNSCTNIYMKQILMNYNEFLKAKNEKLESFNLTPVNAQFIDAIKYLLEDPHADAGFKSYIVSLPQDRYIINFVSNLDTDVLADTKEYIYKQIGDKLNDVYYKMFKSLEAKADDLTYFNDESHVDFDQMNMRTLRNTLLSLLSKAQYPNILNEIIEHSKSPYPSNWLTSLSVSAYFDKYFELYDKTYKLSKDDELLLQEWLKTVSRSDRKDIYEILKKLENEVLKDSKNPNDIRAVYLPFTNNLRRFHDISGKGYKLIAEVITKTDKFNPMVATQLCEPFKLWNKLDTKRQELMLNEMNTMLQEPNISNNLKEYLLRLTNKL

[5] = biological target: T3, Leucine aminopeptidase (Plasmodium falciparum 3D7, UniProt Q8IL11); test: P. falciparum M17LAP inhibitors, primary screen, biochemical, fluorogenic H-Leu-NHMec substrate, 1536-well (AID 1619); assay type: functional
T3 sequence (Q8IL11 whole entry): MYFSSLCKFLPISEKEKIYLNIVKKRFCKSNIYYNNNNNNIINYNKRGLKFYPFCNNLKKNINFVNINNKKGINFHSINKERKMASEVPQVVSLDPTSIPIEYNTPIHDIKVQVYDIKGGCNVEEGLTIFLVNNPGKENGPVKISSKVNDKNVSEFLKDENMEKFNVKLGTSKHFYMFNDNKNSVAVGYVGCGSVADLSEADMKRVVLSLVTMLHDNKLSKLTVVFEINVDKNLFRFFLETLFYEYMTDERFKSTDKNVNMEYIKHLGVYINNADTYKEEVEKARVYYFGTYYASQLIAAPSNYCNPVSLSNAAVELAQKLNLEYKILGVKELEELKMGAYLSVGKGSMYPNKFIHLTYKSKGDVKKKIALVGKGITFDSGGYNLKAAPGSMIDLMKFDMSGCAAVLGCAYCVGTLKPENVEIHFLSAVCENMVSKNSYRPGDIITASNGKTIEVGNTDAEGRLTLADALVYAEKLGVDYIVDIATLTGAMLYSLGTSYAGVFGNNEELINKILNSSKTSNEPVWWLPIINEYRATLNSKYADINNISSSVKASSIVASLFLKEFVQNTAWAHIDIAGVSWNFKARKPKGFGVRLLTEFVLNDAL

[6] = biological target: Large T antigen (Simian virus 40, UniProt P03070); assay type: functional, Betapolyomavirus macacae;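 also: Confirmatory-stage PubChem screen for compounds that inhibit SV40 T antigen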
Chain of Large T antigen (P03070 whole entry): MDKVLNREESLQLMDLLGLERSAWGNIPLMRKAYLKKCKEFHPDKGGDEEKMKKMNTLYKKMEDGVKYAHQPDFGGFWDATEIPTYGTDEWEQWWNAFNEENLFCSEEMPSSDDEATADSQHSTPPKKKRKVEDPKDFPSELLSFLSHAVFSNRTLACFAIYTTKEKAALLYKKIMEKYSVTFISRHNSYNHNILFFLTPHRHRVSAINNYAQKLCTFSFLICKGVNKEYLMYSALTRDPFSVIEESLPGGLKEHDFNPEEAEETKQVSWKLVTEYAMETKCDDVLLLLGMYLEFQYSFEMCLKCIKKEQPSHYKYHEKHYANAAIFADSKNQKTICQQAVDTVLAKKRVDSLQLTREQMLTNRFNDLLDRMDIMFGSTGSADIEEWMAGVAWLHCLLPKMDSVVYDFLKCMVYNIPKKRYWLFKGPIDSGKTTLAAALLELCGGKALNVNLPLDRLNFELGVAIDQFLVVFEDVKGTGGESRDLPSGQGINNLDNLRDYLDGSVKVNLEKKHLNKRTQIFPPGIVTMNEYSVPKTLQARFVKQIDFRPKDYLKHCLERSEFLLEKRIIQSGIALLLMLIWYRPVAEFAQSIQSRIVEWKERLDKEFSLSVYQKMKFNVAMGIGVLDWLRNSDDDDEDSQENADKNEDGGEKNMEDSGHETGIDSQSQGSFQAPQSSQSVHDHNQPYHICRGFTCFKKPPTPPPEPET

[7] = biological target: Peroxisome proliferator-activated receptor gamma/Nuclear receptor coactivator 3 (Homo sapiens, UniProt P37231); assay type: functional;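 also: agonist potency for raising coactivator recruitment to the receptor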
Chain of Peroxisome proliferator-activated receptor gamma/Nuclear receptor coactivator 3 (P37231 whole entry): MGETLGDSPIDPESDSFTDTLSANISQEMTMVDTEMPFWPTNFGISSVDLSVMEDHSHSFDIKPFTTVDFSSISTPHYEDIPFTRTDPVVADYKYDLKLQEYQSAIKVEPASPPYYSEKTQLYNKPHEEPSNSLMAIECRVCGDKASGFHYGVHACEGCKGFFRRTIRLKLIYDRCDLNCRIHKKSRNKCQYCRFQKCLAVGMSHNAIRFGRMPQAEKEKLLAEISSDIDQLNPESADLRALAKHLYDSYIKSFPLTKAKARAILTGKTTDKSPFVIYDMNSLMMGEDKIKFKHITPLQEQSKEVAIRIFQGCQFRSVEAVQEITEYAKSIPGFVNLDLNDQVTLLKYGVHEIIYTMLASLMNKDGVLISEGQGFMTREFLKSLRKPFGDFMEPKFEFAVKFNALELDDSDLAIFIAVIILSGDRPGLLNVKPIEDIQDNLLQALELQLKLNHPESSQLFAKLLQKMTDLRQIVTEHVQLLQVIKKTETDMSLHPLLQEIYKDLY
Chain of Peroxisome proliferator-activated receptor gamma/Nuclear receptor coactivator 3 (Q9Y6Q9 whole entry, further chain): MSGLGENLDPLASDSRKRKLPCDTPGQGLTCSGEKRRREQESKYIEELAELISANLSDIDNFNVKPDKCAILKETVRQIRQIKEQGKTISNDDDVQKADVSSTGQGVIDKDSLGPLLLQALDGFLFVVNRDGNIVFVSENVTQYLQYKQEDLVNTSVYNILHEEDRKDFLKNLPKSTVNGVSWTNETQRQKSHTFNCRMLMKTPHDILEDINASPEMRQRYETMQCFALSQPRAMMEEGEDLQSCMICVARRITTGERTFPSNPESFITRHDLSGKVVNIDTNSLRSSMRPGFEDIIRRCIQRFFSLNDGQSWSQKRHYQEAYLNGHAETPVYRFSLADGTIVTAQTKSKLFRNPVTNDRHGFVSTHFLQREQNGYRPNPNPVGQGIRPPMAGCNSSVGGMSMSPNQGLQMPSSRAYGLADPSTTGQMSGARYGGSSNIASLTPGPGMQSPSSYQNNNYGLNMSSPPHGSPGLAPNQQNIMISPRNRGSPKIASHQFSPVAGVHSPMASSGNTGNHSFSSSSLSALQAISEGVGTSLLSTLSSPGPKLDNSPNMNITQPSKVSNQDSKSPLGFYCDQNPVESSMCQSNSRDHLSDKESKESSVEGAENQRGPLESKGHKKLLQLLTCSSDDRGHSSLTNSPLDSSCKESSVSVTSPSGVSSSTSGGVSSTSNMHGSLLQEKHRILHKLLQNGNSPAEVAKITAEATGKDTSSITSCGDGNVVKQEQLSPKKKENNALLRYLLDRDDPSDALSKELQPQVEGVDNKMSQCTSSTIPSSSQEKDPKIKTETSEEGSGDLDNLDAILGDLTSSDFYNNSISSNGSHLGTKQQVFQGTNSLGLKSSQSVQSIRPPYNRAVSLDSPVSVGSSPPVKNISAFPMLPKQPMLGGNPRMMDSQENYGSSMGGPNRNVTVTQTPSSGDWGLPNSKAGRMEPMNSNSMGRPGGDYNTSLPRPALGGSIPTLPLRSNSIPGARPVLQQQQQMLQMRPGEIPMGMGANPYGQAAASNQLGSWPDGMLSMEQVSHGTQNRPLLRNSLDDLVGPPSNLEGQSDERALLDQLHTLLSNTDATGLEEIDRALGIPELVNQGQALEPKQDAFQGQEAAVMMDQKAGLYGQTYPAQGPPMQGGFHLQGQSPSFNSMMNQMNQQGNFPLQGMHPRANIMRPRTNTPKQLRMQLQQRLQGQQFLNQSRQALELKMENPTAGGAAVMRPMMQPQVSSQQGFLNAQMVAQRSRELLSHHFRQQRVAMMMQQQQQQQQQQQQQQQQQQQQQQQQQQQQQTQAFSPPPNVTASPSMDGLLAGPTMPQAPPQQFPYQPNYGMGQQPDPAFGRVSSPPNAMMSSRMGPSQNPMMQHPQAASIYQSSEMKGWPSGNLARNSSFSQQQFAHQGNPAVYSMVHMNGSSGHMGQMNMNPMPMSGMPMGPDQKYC

[8] = biological target: Peroxisome proliferator-activated receptor gamma/Nuclear receptor coactivator 2 (Homo sapiens, UniProt P37231); assay type: functional;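 also: agonist potency for raising coactivator recruitment to the receptor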
Chain of Peroxisome proliferator-activated receptor gamma/Nuclear receptor coactivator 2 (P37231 whole entry): as the sequence (P37231 whole entry) above
Chain of Peroxisome proliferator-activated receptor gamma/Nuclear receptor coactivator 2 (Q15596 whole entry, further chain): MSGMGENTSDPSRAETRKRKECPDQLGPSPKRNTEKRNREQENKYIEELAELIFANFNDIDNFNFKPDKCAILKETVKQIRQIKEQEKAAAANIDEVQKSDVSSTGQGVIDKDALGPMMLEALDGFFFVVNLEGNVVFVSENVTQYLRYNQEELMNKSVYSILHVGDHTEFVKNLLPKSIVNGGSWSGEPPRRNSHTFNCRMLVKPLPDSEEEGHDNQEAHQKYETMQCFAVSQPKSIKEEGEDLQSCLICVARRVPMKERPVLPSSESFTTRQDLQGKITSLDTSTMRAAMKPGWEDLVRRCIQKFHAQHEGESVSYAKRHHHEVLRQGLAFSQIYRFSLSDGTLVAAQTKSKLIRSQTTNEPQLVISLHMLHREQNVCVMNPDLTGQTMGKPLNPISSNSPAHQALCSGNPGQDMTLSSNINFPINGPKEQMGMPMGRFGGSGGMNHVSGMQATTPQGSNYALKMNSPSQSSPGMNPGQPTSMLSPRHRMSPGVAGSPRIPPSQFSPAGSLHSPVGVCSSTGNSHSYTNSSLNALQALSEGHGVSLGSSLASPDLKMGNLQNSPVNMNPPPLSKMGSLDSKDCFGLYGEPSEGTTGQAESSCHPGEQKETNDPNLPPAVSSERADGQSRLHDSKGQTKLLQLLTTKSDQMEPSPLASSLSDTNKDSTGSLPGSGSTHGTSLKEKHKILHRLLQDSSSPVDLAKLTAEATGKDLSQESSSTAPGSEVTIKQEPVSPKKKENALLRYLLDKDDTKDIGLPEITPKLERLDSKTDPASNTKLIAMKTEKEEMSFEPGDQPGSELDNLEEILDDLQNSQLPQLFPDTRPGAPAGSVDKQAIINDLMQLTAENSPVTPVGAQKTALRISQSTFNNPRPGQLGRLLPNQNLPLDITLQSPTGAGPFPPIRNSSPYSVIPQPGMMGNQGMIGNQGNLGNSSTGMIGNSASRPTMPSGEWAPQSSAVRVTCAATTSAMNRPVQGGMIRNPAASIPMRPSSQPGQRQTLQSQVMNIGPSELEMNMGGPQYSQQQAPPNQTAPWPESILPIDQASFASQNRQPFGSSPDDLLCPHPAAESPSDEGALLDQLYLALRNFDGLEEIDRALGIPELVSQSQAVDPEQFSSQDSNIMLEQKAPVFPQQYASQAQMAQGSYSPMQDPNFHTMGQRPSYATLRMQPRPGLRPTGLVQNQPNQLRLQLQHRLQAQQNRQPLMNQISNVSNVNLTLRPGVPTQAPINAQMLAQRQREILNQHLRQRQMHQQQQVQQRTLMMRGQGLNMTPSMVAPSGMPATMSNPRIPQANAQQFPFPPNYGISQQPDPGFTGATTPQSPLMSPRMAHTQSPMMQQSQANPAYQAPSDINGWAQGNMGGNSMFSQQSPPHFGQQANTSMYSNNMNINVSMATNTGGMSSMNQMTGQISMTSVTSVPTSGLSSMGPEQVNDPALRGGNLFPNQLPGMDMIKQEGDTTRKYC

[9] = biological target: Peroxisome proliferator-activated receptor gamma/Nuclear receptor coactivator 1 (Homo sapiens, UniProt P37231); assay type: functional;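 also: agonist potency as compounds enhance coactivator SRC-1 recruitment to PPARgamma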
[10] = biological target: T4, Histone-lysine N-methyltransferase NSD2 (Homo sapiens, UniProt O96028); assay type: biochemical
T4 sequence (O96028 whole entry): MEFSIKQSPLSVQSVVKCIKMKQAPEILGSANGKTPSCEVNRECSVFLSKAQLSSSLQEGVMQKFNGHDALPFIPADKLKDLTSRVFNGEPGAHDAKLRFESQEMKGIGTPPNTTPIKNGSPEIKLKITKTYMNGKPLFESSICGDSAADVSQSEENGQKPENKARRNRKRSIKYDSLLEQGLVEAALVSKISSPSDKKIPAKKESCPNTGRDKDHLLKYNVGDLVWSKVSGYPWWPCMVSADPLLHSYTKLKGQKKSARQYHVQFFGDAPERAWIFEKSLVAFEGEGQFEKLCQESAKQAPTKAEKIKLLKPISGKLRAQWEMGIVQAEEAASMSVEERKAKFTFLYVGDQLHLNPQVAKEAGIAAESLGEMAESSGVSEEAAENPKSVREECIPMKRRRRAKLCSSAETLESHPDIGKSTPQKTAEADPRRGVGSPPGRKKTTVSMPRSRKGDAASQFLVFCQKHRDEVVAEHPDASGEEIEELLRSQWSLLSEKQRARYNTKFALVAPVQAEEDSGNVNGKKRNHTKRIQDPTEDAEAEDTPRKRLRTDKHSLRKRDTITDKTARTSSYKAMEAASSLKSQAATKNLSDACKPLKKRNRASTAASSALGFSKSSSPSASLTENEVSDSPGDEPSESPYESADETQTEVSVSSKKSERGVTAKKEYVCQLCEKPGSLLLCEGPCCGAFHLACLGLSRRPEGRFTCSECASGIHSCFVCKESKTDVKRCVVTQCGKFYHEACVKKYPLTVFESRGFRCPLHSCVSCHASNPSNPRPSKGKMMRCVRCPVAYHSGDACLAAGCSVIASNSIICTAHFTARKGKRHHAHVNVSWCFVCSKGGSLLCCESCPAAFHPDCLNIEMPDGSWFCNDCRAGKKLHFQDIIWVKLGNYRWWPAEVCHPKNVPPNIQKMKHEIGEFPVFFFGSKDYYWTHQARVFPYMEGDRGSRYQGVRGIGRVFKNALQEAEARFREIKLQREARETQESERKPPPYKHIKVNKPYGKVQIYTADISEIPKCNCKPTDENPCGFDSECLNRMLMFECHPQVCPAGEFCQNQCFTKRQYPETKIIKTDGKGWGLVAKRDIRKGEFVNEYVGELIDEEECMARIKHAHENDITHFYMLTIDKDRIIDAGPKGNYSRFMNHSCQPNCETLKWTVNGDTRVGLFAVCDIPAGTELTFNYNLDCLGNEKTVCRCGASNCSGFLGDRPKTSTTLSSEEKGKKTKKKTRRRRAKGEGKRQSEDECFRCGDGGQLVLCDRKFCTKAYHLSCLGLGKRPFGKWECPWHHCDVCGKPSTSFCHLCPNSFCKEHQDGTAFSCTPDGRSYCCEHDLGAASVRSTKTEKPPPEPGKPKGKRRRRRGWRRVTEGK

SMILES: Cc1csc(NC(=O)COCC(=O)O)c1-c1nc2ccccc2s1
- EC50 [1]: 5.48 µM (active)
- EC50 [2]: 22.3 µM (active)
- EC50 [3]: > 150 µM (not active)
- IC50 [4]: 17.1 µM (active)
- IC50 [5]: 35.1 µM (active)

SMILES: OC[C@H]1O[C@@H](Oc2cc(O)cc(/C=C/c3ccc(O)cc3)c2)[C@H](O)[C@@H](O)[C@@H]1O [PICEID]
- IC50 [6]: 11.2 µM (active)

SMILES: CCc1nnc(NS(=O)(=O)c2ccc(NC(=S)NC(=O)/C=C/c3cccs3)cc2)s1
- EC50 [7]: > 79.4 µM (not active)
- EC50 [8]: > 79.4 µM (not active)
- EC50 [9]: > 79.4 µM (not active)
- IC50 [4]: 79.4 µM (active)
- IC50 [5]: 9.13 µM (active)

SMILES: CCN(CC)CCCCN1c2ccccc2Sc2ccccc21
- IC50 [6]: 14.2 µM (active)

SMILES: CCCSc1nnc(NC(=O)c2nc(SC)ncc2Cl)s1
- IC50 [4]: 109 µM (active)
- IC50 [5]: 34.2 µM (active)

SMILES: CSC1=NSC2=NC(=O)/C(=C\c3coc4ccccc4c3=O)C(=N)N12
- IC50 [6]: 67.1 µM (active)
- AC50 [10]: 11.7 µM (active)
